Data reported in paper PMC6491934 (Frontiers in Microbiology, 2019).
Like-named read-outs stand apart in the source and are kept apart here.

Legend:
PrtP [1] = test: culture of Lactococcus lactis subsp. lactis BGMN1-501 in chemically defined growth medium (CDM) with addition of 0.5% casitone; cell-free supernatant; settings: Lactococcus lactis subsp. lactis BGMN1-501, 30°C, up to 16 h
PrtP [2] = test: proteinase extract of BGMN1-501 cells in 0.1 mol/L sodium phosphate buffer (NaPi, pH 7); settings: Lactococcus lactis subsp. lactis BGMN1-501, up to 20 h
proteinase PrtP [3] = type: in vitro ADME, Lactococcus lactis subsp. lactis BGMN1-501
Experimental: Bacteriocin activity of BGMN1-501, as well as of recombinantly produced bacteriocin was evaluated by an agar-well diffusion test ([Lozo et al., 2004]). The activity of HPLC-obtained fractions and of chemically synthesized bacteriocin was evaluated by spot-on-lawn assays. Soft GM17 agar (0.75%, w/v) containing sensitive strain was overlaid onto thin GM17 agar plates. After soft agar solidified, 10 μL of sample was spotted and plates were incubated at 30°C overnight. Clear zones of growth inhibition in the spots were used as positive signals. Lactococcus lactis subsp. lactis BGMN1-596 was used in all tests as sensitive strain. Proteinase extract was prepared as following: BGMN1-501 was grown on milk citrate agar plates, collected and re-suspended in 0.1 mol/L sodium phosphate buffer (NaPi, pH 7), incubated at room temperature for 30 min, pelleted by centrifugation and supernatants were collected prior to reactions. In vitro testing of effect of proteinase extract on bacteriocin activity was done as previously described ([Vukotic et al., 2015]), except that recombinant bacteriocins were used as substrates in the reactions.

proteinase PrtP [4] = type: in vitro ADME, Lactococcus lactis subsp. lactis BGMN1-501; remark: listed apart in the source
Experimental: For the purification and mass spectrometric analysis of the bacteriocin in Lactococcus lactis subsp. lactis BGMN1-501, the strain was grown at 30°C for 16 h in 500 mL of chemically defined growth medium (CDM)with addition of 0.5% casitone (Difco Laboratories, Becton Dickinson and Company, Franklin Lakes, NJ, United States). The bacteriocin was purified following the protocol of [Mirkovic et al. (2016)]. Briefly, the cells were removed by centrifugation (4,500 × g for 30 min at 4°C), while the supernatant was saturated up to 40% with ammonium sulfate, and precipitated with stirring for 2 h at 4°C. The precipitate was collected by centrifugation (10,000 × g for 30 min at 4°C) and then dissolved in 5 mL of Milli-Q water containing 0.1% trifluoroacetic acid. The bacteriocin was further purified using reverse-phase high-performance liquid chromatography (HPLC). […] The chromatography was monitored by measuring absorbance at 215 nm. […] Both recombinant peptides and the reaction mixtures of LcnB and PrtP were analyzed using the same reverse-phase chromatography as used for bacteriocin purification (see Section “Bacteriocin LcnB Purification From Lactococcus lactis subsp. lactis BGMN1-501”).

[5] = system: Lactococcus lactis subsp. lactis BGMN1-596; test: Spot-on-lawn bacteriocin activity assay; type: cell-based; settings: sensitive strain BGMN1-596, 30°C overnight
Experimental: The activity of HPLC-obtained fractions and of chemically synthesized bacteriocin was evaluated by spot-on-lawn assays. Soft GM17 agar (0.75%, w/v) containing sensitive strain was overlaid onto thin GM17 agar plates. After soft agar solidified, 10 μL of sample was spotted and plates were incubated at 30°C overnight. Clear zones of growth inhibition in the spots were used as positive signals. Lactococcus lactis subsp. lactis BGMN1-596 was used in all tests as sensitive strain.

BGMN1-596 = test: Glucose-uptake inhibition assay (growth of BGMN1-596 in GM17); type: cell-based, Lactococcus lactis subsp. lactis; settings: chemically synthetized LcnB^∗, 0–1,000 μg/mL (highest concentration), BGMN1-596 5% inoculum in GM17, OD 600 nm over 6 h, triplicate
Experimental: To test whether truncated peptide can interfere with glucose import, growth of BGMN1-596 in GM17 with added LcnB^∗ was monitored. Fresh overnight culture, grown in GM17, was inoculated at 5% to fresh media, and saturated with increased concentrations (0–1,000 μg/mL) of chemically synthetized LcnB^∗. As a control, the same inoculum was made in media without glucose. Bacterial growth was monitored in microtitar plates by OD measurement at 600 nm at different time points for 6h. The assay was done in triplicate.

[6] = system: LcnB receptor on sensitive BGMN1-596 cells (man-PTS); test: Bacteriocin competition assay; type: cell-based, Lactococcus lactis subsp. lactis; settings: 10 μL of 62.5–1,000 μg/mL LcnB^∗ adsorbed 30 min at room temperature, then 50 μL BGMN1-501 culture, overnight 30°C
Experimental: The possibility of truncated peptide LcnB^∗ to compete with wild type LcnB for binding to its receptor molecule was tested in bacteriocin competition assay. Bacteriocin assay was prepared, as explained above. Before addition of bacteriocin producer, 10 μL of increasing concentrations (62.5–1,000 μg/mL) of LcnB^∗ was added to the wells made in soft agar and left for 30 min at room temperature to be completely adsorbed. After that, 50 μL of fresh BGMN1-501 culture was added to the wells, and incubated overnight at 30°C to produce growth inhibition zones.

Sequence	cleaved bond (PrtP [1])	cleaved bond (PrtP [2])	bacteriocin activity after incubation with PrtP extract (proteinase PrtP [3])	bacteriocin activity after incubation with PrtP extract (proteinase PrtP [3]; pH 7)	PrtP cleavage site in the peptide (proteinase PrtP [4])	amount of peptide left after PrtP hydrolysis (proteinase PrtP [4])	antimicrobial activity (growth inhibition zone) ([5]; chemically synthesized peptide (Biomatik), 10 μL spotted, up to 1 mg/mL)	antimicrobial activity (growth inhibition zone) ([5]; recombinant peptide (pMAL system, E. coli ER2523), 50–500 μg/mL)	effect on bacterial growth (interference with glucose import) (BGMN1-596)	effect of pretreatment on bacteriocin activity of wild type LcnB (competition for the receptor) [6]
SLQYVMSAGPYTWYKDTRTGKTICKQTIDTASYTFGVMAEGWGKTFH	methionine6-serine7	methionine6-serine7, major, 3 h								
SLQYVMSAGPYTWYKDTRTGKTICKQTIDTASYTFGVMAEGWGKTFH [LcnB, bacteriocin of Lactococcus lactis subsp. lactis BGMN1-501, mature peptide, produced recombinantly in E. coli ER2523]			no activity could be detected	reduced the bacteriocin activity	between sixth and seventh amino acid	drastically reduced	inactive	strong antimicrobial activity	did not alter bacterial growth	did not influence the latter bacteriocin activity of wild type molecule
